6 molecules from article PMC3121703, “Inhibitory activity of 9-phenylcyclohepta[d]pyrimidinedione derivatives against different strains of HIV-1 as non-nucleoside reverse transcriptase inhibitors” (Virology Journal, 2011) can be followed below.

The test system of data set [1] is HIV-1 SF33. Description: HIV-1 inhibition assay, TZM-bl cells, luciferase. Format: cell-based. As to conditions: for IC50: Human immunodeficiency virus 1. Here is the method:
(§1) The inhibitory activity of BmPCP, APCP, BPCP and EPCP on infection by laboratory-adapted HIV-1 strains was tested in TZM-bl cells, MT4 cells or PBMCs, respectively, as previously described. TZM-bl cells were seeded at 10^4/well and cultured in a 96-well tissue culture plate overnight, followed by addition of 200 TCID50 (50% Tissue Culture Infective Dose) of HIV-1 virus. After incubation at 37°C for 2 hrs, BmPCP at graded concentrations was added. After further incubation at 37°C for 48 hrs, the luciferase activity was measured using a luciferase assay kit (Promega Corp.) according to the manufacturer's instructions. MT4 cells (4 × 10^4/well) and PBMCs (1 × 10^5/well) were infected by addition of 200 TCID50 of HIV-1 virus, followed by incubation for 2 hrs at 37°C before addition of BmPCP at serial dilutions. After further incubation at 37°C for 4 days (for MT4 cells) or 7 days (for PBMCs), HIV-1 p24 was measured using a commercial enzyme-linked immunosorbent assay (ELISA) kit (Vironostika HIV-1 Microelisa system; BioMérieux; Marcy l'Etoile, France). The inhibitory activity of BmPCP on infection by primary HIV-1 isolates was also tested in PBMCs as described above. The percent of inhibition and the IC50 were calculated as previously described.

The nature of the next data set: XTT cytotoxicity assay. It is filed as cell-based. Particulars: human. Here is the method: (§2) XTT assay was used to test the cytotoxicity of BmPCP on MT4 cells, human PBMCs (non-stimulated) and TZM-bl cells.
(§3) An XTT assay, as previously described, was used for assessing the cytotoxicity of BmPCP to the cells tested for anti-HIV-1 activity. Briefly, BmPCP at graded concentrations was added to MT4 cells, PBMCs, and TZM-bl cells at 4 × 10^4, 1 × 10^5 and 1 × 10^4 cells per well, respectively, followed by an incubation at 37°C for 3 days. Ten microliters of CCK-8 reagent was added to the cells. After incubation at 37°C, for 4 h to allow color development of the XTT formazan product, the absorbance of each well was then read at 450 nm in a Victor2 1420 Multilabel Counter (Wallace-PerkinElmer Life and Analytical Sciences Inc., Boston, MA). The percent of cytotoxicity and CC50 were calculated as previously described.
(In general: Tetrazolium assays rely on reduction of a dye to a coloured formazan, in cell work by metabolically active cells.)

The subject of data set [2] is HIV-1 SF33. Description: HIV-1 inhibition assay, MT4 cells, p24 ELISA. Particulars: for IC50: Human immunodeficiency virus 1. Format: cell-based. Here is the method:
as §1
For orientation: In an ELISA, binding on a coated surface is turned into a signal by an enzyme label.

For data set [3], the target named is HIV-1 reverse transcriptase (Human immunodeficiency virus type 1 group M subtype B, UniProt P04585). Description: ELISA RT assay for inhibition of HIV-1 reverse transcriptase activity.
From the text: Oligo(dT) 15 was immobilized via its 5'-terminal phosphate to Covalink-NH microtiter plates. The biotin-dUTP was incorporated by reverse transcriptase. The products were detected and quantified using a colorimetric strep- tavidin-alkaline phosphatase reporter system.
Briefly, Oligo(dT) 15 was immobilized via its 5'-terminal phosphate to CovaLink NH microtiter plates. The biotin-dUTP was incorporated by reverse transcriptase. The products were detected and quantified using a colorimetric streptavidin alkaline phosphatase reporter system.
In the next data set the test system is HIV-1. As to the kind of experiment: HIV-1 inhibition assays, summary over strains and cells. Particulars: broad spectrum of HIV-1 strains incl. Chinese clinical isolates. Format: cell-based. Here is the method:
as §1

The next data set has as its system HIV-1 AH104. Description: Primary HIV-1 isolate inhibition in PBMCs. It is filed as cell-based. Particulars: Human immunodeficiency virus 1, PBMC; primary isolate AH104, subtype B', X4/R5, PBMCs. Here is the method:
(§4) HIV-1CRF07_BC and B' (Thailand B, a kind variant of subtype B) are two epidemic strains in China. Furthermore, to verify the antiviral activity on China clinical isolates, CRF07_BC and B' were chosen.
as §1

A further data set relates to HIV-1 XJ0793. Description: Primary HIV-1 isolate inhibition in PBMCs. As to conditions: primary isolate XJ0793, subtype B'/C, R5, PBMCs; for IC50: Human immunodeficiency virus 1, PBMC. It is filed as cell-based. Here is the method: as §4, §1
The next data set deals with HIV-1 AH259. Description: Primary HIV-1 isolate inhibition in PBMCs. Format: cell-based. Particulars: primary isolate AH259, subtype B', R5, PBMCs; for IC50: Human immunodeficiency virus 1, PBMC. The protocol:
as §4, §1

A further data set deals with HIV-1 XJ6291. As to the kind of experiment: Primary HIV-1 isolate inhibition in PBMCs. Format: cell-based. Particulars: for IC50: Human immunodeficiency virus 1, PBMC. The protocol: as §4, §1
A further data set concerns HIV-1 XJ257. As to the kind of experiment: Primary HIV-1 isolate inhibition in PBMCs. It is filed as cell-based. Particulars: primary isolate XJ257, subtype B'/C, R5, PBMCs; for IC50: Human immunodeficiency virus 1, PBMC. Here is the method:
as §4, §1

Another data set deals with HIV-1 AH968. Description: Primary HIV-1 isolate inhibition in PBMCs. It is filed as cell-based. As to conditions: primary isolate AH968, subtype B', R5, PBMCs; for IC50: Human immunodeficiency virus 1, PBMC. Here is the method: as §4, §1
Data set [4] relates to HIV-1 SF33. Description: HIV-1 inhibition assay, PBMCs, p24 ELISA. Format: cell-based. Particulars: for IC50: Human immunodeficiency virus 1, PBMC. The protocol: as §1
A further data set relates to TZM-bl cells. As to the kind of experiment: XTT cytotoxicity assay. Format: cell-based. The protocol:
as §2, §3

The subject of a further data set is MT4 cells. As to the kind of experiment: XTT cytotoxicity assay. Format: cell-based. The protocol: as §2, §3
The nature of data set [5]: XTT cytotoxicity assay, summary over cells. As to conditions: human, human PBMCs (non-stimulated) and TZM-bl cells, MT4, PBMCs and TZM-bl cells, read-out: CC50, range. Format: cell-based. Here is the method: as §2, §3
A further data set concerns HIV-1SF33. Description: Time-of-addition assay. Format: cell-based. As to conditions: for Antiviral activity in time-of-addition assay: added eight hours post-infection, BmPCP 13.3 μM, NVP 5 μM. The protocol: Figure 2 Time-of-addition assay of compounds. TZM-bl cells were infected with HIV-1SF33 at 200 TCID50.
MT4 cells were seeded at 10^4/well and cultured in a 96-well tissue culture plate overnight, followed by addition of 200 TCID50 of HIV-1SF33. […] HIV-1 p24 was measured using a commercial enzyme-linked immunosorbent assay (ELISA) kit (Vironostika HIV-1 Microelisa system; BioMérieux; Marcy l'Etoile, France).

A further data set relates to HIV-1 1617-1. As to the kind of experiment: microbe, parasite or virus in culture. It is filed as cell-based. The protocol: We tested the antiviral activity of BmPCP in three cells including peripheral blood mononuclear cells (PBMCs), TZM-b1 and MT4 cells by using HIV-1SF33 and HIV-1 1617-1, a variant bearing K70G, 184V, 75I, 77L, I16Y and I51M mutations, which are resistant to NRTIs (e.g., d4T, DDI and AZT).
as §1

Setting [6] is: Human immunodeficiency virus 1, MT4.
[7] abbreviates: Human immunodeficiency virus 1, PBMC.
[8] abbreviates: Human immunodeficiency virus 1, TZM-bl.

Read-outs that look alike come from different tables or passages of the source.

By IC50 is commonly meant the concentration that inhibits the measured activity by half. As usually defined, the CC50 is the concentration giving 50% cytotoxicity. In the case of `C=CCn1c2c(c(=O)[nH]c1=O)CCCCC2c1ccccc1` (stereo not drawn) [APCP], the “SI (Selectivity index = CC50/IC50)” value is recorded as 38.46 in the data set on HIV-1 SF33 [1] and 2.17 with HIV-1 SF33 [2]. Further, the IC50 was 1300 nM with HIV-1 SF33 [1] and 28600 nM with HIV-1 SF33 [2]. The CC50 at 3 days in the data set “XTT cytotoxicity assay” (MT4 cells) came out at 62000 nM; in “XTT cytotoxicity assay” (TZM-bl cells) it was 50000 nM.

For `O=c1[nH]c(=O)n(Cc2ccccc2)c2c1CCCCC2c1ccccc1` (stereo not drawn) [BPCP], the “SI (Selectivity index = CC50/IC50)” value is reported as 20 in the data set with HIV-1 SF33 [1] and 1.15 with HIV-1 SF33 [2]. The values for the IC50 in the data set on HIV-1 SF33 [1] and with HIV-1 SF33 [2] were 9000 nM and 115000 nM, respectively. The CC50 at 3 days in “XTT cytotoxicity assay” (MT4 cells) is 132000 nM; in the data set “XTT cytotoxicity assay” (TZM-bl cells), 180000 nM.

`O=c1[nH]c(=O)n(COCc2ccccc2)c2c1CCCCC2c1ccccc1` (stereo not drawn) [BmPCP]: the IC50 in [3] was 1510 nM; with HIV-1 SF33 [1], 340 nM; in the data set on HIV-1 AH104, 590 ± 340 nM; with HIV-1 XJ0793, 250 ± 30 nM; with HIV-1 AH259, 320 ± 150 nM; with HIV-1 XJ6291, 570 ± 20 nM. The IC50 was determined as 530 ± 70 nM in the data set on HIV-1 XJ257; 440 ± 170 nM in the data set on HIV-1 AH968; 1720 ± 370 nM with HIV-1 SF33 [4]; 1960 nM in the data set on HIV-1 SF33 [2]; 1470 ± 430 nM in the data set on HIV-1 1617-1 (setting [6]); 1760 ± 230 nM in the data set with HIV-1 1617-1 (setting [7]). This molecule gave an IC50 in the data set on HIV-1 1617-1 (setting [8]) of 1450 ± 210 nM. The “IC50, level over HIV-1 strains” value with HIV-1 is on record as “low μM levels”. Moreover, the “SI (Selectivity index = CC50/IC50)” value in the data set on HIV-1 SF33 [1] came out at 266; with HIV-1 XJ0793, 361; with HIV-1 AH259 it was 282; in the data set with HIV-1 XJ6291 (primary isolate XJ6291, subtype B'/C, R5, PBMCs), 158; in the data set with HIV-1 XJ257, 170; in the data set on HIV-1 AH968, 205. For the same molecule, the “SI (Selectivity index = CC50/IC50)” value is listed as 67 in the data set with HIV-1 SF33 [4], 84 in the data set on HIV-1 SF33 [2], 65 in the data set on HIV-1 1617-1 (1617-1/PBMCs) and 62 in the data set with HIV-1 1617-1 (1617-1/TZM-bl). The CC50 at 3 days is 90300 nM in the data set “XTT cytotoxicity assay” (MT4 cells); 114000 ± 9380 nM in the data set “XTT cytotoxicity assay” (PBMCs (non-stimulated), PBMC); 129000 nM in the data set “XTT cytotoxicity assay” (TZM-bl cells); 90000 to 165000 nM in [5]. Also, the CC90 at 3 days came out at 383000 ± 53500 nM in the data set “XTT cytotoxicity assay” (MT4 cells); 229000 ± 6400 nM in the data set “XTT cytotoxicity assay” (PBMCs (non-stimulated), PBMC); 208000 ± 8690 nM in the data set “XTT cytotoxicity assay” (TZM-bl cells). Besides, the results for the CC50 in the data set with TZM-bl cells and in the data set with MT4 cells were 90300 nM and 165000 nM, respectively. For the same molecule, the “Antiviral activity in time-of-addition assay” value with HIV-1SF33 is “demonstrated antiviral activity”.

Take `CCOCn1c2c(c(=O)[nH]c1=O)CCCCC2c1ccccc1` (stereo not drawn) [EPCP]: the “SI (Selectivity index = CC50/IC50)” value with HIV-1 SF33 [1] turned out to be 13.75; in the data set on HIV-1 SF33 [2], 3.9. The IC50 in the data set with HIV-1 SF33 [1] is 1600 nM; in the data set with HIV-1 SF33 [2] it was 7500 nM. For the same molecule, the CC50 at 3 days in the data set “XTT cytotoxicity assay” (MT4 cells) was determined as 29300 nM; in “XTT cytotoxicity assay” (TZM-bl cells), 22000 nM.

Turning to `Cc1ccnc2c1NC(=O)c1cccnc1N2C1CC1` [NVP, nevirapine, reference compound], the IC50 in the data set on HIV-1 SF33 [1] stood at 190 ± 20 nM; in the data set on HIV-1 AH104, 7 ± 3 nM; with HIV-1 XJ0793 it was 79 ± 97 nM; in the data set with HIV-1 AH259 it was 7 ± 1 nM; in the data set with HIV-1 XJ6291 (primary isolate XJ6291, subtype B'/C, R5, PBMCs, read-out: IC50), 186 ± 224 nM; in the data set with HIV-1 XJ257 it was 211 ± 120 nM. For the same molecule, the IC50 with HIV-1 AH968 turned out to be 58 ± 60 nM; with HIV-1 SF33 [4] it was 690 ± 70 nM; in the data set with HIV-1 SF33 [2], 650 ± 230 nM; in the data set with HIV-1 1617-1 (setting [6]) it was 440 ± 120 nM; in the data set on HIV-1 1617-1 (setting [7]) it was 570 ± 80 nM; with HIV-1 1617-1 (setting [8]), 160 ± 100 nM. Also, the “Antiviral activity in time-of-addition assay” value in the data set with HIV-1SF33 is “demonstrated antiviral activity”.

Regarding Enfuvirtide [T20], the “Inhibitory activity in time-of-addition assay” value with HIV-1SF33 (added one hour after viral infection, T-20 5 μM) was “no inhibitory activity”.
